Consider seven molecules from patent US4321372A, “Antiulcer thiazol-2-ylcarbamoyl-carboxylic acids, esters and amides” (Pfizer Inc., priority 1980, dated 1982).

One experiment deals with antiallergic activity. Conditions: cited from earlier work.
The subject of experiment [1] is ethanol-induced rat ulcer. Briefly: Ethanol-induced rat ulcer assay (oral antiulcer activity). It is filed as in vivo. The note with it: for % Inhibition (oral activity in the ethanol-induced rat ulcer assay) / inhibition at 5 mg/kg: 5 mg./kg. orally, 15 min before absolute ethanol (1.0 ml.), male fasted rats, 8/group, lesions scored 1 hour after ethanol, based on ulcer index vs controls; for inhibition at 5 mg/kg: Rattus norvegicus, po. How it is done:
The antiulcer activity of the compounds of the present invention is evaluated by an ethanol-induced rat ulcer assay, a test reflecting clinical utility of these compounds in the treatment of peptic ulcers, particularly gastric ulcers.
The effectiveness of the products of this invention as antiulcer agents is determined in an ethanol-induced rat ulcer assay. In this test, overnight fasted male rats are orally administered either drug (5 mg./kg.) dissolved or suspended in water or dilute NaOH, or water (controls), fifteen minutes prior to an orally administered dose of absolute ethanol (1.0 ml.). One hour after the ethanol challenge the animals (8/group) are killed and the stomachs examined for the presence of lesions. After sacrifice the abdomen is opened and a locking hemostate placed at the pylorus. Six ml. of a 4% solution of formaldehyde is injected into the stomach with a gastric feeding tube and a second locking hemostate is used to seal the esophagus. The stomach is removed, opened along the greater curvature and examined for ulceration.
The scoring system used to quantitate the ethanol-induced lesions is given below.
1 Normal appearing stomach
2 Pinpoint sized lesions
3 Lesions, 2 or fewer; pin-
5 Lesions with hemorrhage
For each group of animals an ulcer index is calculated as follows:
Ulceration Index=(the sum of the scores of the group)×(the sum of the number of ulcers in the group)×(the fraction of the group having any incidence of ulceration).
The percent inhibition of ulcers is calculated as follows:
% Inhibition=100×[(ulcer index controls)-(ulcer index drug-treated)].div.(ulcer index controls).

A further experiment has as its system gastric ulcers. The note with it: animals, including humans; cited from earlier work.

Where a name gives a salt, the structure may show the parent alone.

As to `CCOC(=O)C(=O)Nc1nccs1` [ethyl thiazol-2-ylcarbamoylcarboxylate], in the experiment with antiallergic activity (high parenteral dose), the “antiallergic activity, parenteral” value is recorded as “antiallergic activity”. For the same molecule, in the experiment with antiallergic activity (oral, even at 200 mg./kg.), the “antiallergic activity, oral” value is recorded as “no significant oral activity”. In experiment [1], the “% Inhibition (oral activity in the ethanol-induced rat ulcer assay)” value (“% Inhibition” for short) is “inactive” and the inhibition (in general, the relative decrease from the control value, in per cent) at 5 mg/kg turned out to be 3%. The “antiulcer activity (in words)” value in experiment [1] (compared with compounds of the invention) is listed as “lacking in the antiulcer activity”. For the molecule “ethyl 5-methylthiazol-2-ylcarbamoylcarboxylate [Example 15]”, the “% Inhibition” value in experiment [1] amounted to 48%.

On to “ethyl 4-methylthiazol-2-ylcarbamoylcarboxylate [Example 14]”, for which the “% Inhibition” value in experiment [1] turned out to be 59%. The molecule `CCOC(=O)C(=O)Nc1nc2c(s1)CCCC2` [Example 23, ethyl 4,5,6,7-tetrahydrobenzthiazol-2-ylcarbamoylcarboxylate] had an inhibition at 5 mg/kg in experiment [1] of 51%. On the same count and under the same terms, the same measure for `CCOC(=O)C(=O)Nc1nc(CC)c(CC)s1` [Example 18, ethyl 4,5-diethylthiazol-2-ylcarbamoylcarboxylate]: 81%. Consider `CC1(C)[C@@H](OC(=O)CCC(=O)O)CC[C@]2(C)[C@H]3C(=O)C=C4[C@@H]5C[C@@](C)(C(=O)O)CC[C@]5(C)CC[C@@]4(C)[C@]3(C)CC[C@@H]12` [carbenoxolone sodium, disodium salt of the hemisuccinate of glycyrrhetinic acid], for which the “effect on gastric ulcers” value in the experiment with gastric ulcers was “prevent formation of and to accelerate healing of gastric ulcers”. The molecule `CCOC(=O)C(=O)Nc1nc(C)c(C)s1` [Example 16, ethyl 4,5-dimethylthiazol-2-ylcarbamoylcarboxylate] gave an inhibition at 5 mg/kg in experiment [1] of 62%.
